In PMC5115179 (Pharmacology Research & Perspectives, 2016):
pKi: −log10 of the molar value.

Legend:
[1] = NCS‐382–diclofenac interaction study (inhibition of NCS‐382 glucuronidation); settings: mouse; for AUC(0-t): both, in vivo, 25 mg/kg
[2] = system: gamma‐butyrolactone‐treated mice; assay: GBL‐mediated response protection by NCS‐382 in the absence and presence of diclofenac; type: in vivo; settings: mouse; given alone i.p. (NCS‐382 300 mg/kg or diclofenac 25 mg/kg) 30 min before GBL 100 mg/kg i.p.
[3] = system: UGT2B7; parameters: method as in Miners et al. 1997; Ammon et al. 2000; King et al. 2001; settings: ref Miners et al. 1997; Ammon et al. 2000; King et al. 2001; cited from earlier work
[4] = system: GHB binding sites; parameters: method as in Wellendorph et al. 2009; settings: ref Wellendorph et al. 2009; cited from earlier work
[5] = system: UGT1A9; parameters: method as in Miners et al. 1997; Ammon et al. 2000; King et al. 2001; settings: ref Miners et al. 1997; Ammon et al. 2000; King et al. 2001; cited from earlier work
[6] = system: monocarboxylate transporter 1 (MCT1); parameters: method as in Tamai et al. 1999; Wang and Morris 2007; settings: ref Tamai et al. 1999; Wang and Morris 2007; cited from earlier work
[7] = Excretion of NCS‐382 in urine and feces (metabolic cages); type: in vivo; settings: mouse, reanalyzed samples of study 1
Description: To ensure sufficient volumes of urine could be collected in each of the 2 h time intervals (baseline, 0–2, 2–4, 4–6, 6–8 h), three mice were dosed simultaneously and their urine and feces pooled for analysis. The total dose in μg administered to the three animals was therefore used to calculate the percent of the dose excreted in the urine pooled from all three mice. Animals were allowed ad libitum access to food and water of which the intake of each was monitored.
Samples (3 μL) were injected onto a Kinetex PFP (50 × 2.1 mm, 1.7 μm particle size) UPLC column and eluted with a binary gradient consisting of water with 0.1% formic acid (mobile phase A) and methanol with 0.1% formic acid (mobile phase B). […] Eluent was directed to waste for the initial 0.4 min then to an ABI Sciex 6500 Qtrap tandem mass spectrometer. […] Where necessary, samples were diluted in blank matrices for analysis.
Pharmacokinetic outcomes were obtained via standard noncompartmental methods using Kinetica (version 5.1, Thermo Fisher Scientific, Waltham, MA). The maximum concentration (C max) was obtained directly from the concentration–time profiles. Area under the concentration–time curve (AUC) from time zero to the last collected time point was determined using the trapezoidal method with linear up/log down interpolation.

[8] = treatment Diclofenac 25 mg/kg alone
[9] = treatment NCS‐382 300 mg/kg + Diclofenac 25 mg/kg
[10] = treatment NCS‐382 300 mg/kg alone

O=C(O)Cc1ccccc1Nc1c(Cl)cc(O)cc1Cl [4‐OH‐Diclofenac, 4′‐hydroxydiclofenac]
Sera AUC0–2 h [90% CI], relative quantification (peak area ratio) [1, 8]: 6.76 [5.18–8.33] PAR*h
Sera AUC0–2 h [90% CI], relative quantification (peak area ratio) [1, 9]: 8.28 [7.60–8.97] PAR*h

O=C(O)Cc1cc(O)ccc1Nc1c(Cl)cccc1Cl [5‐OH‐Diclofenac, 5‐hydroxydiclofenac]
AUC(0-t) [1]: 61.3 µM·h
Brain AUC0–2 h [90% CI] [1, 8]: 4.60 [4.55–4.65] nmol g/tissue*h
Brain AUC0–2 h [90% CI] [1, 9]: 5.20 [4.77–5.62] ^a nmol g/tissue*h

O=C(Cc1ccccc1Nc1c(Cl)cccc1Cl)O[C@@H]1O[C@H](C(=O)O)[C@@H](O)[C@H](O)[C@H]1O [Diclofenac glucuronide]
Brain AUC0–2 h [90% CI], relative quantification (peak area ratio) [1, 8]: 5.87 [4.46–7.28] PAR*h
Sera AUC0–2 h [90% CI], relative quantification (peak area ratio) [1, 8]: 8.57 [6.09–11.04] PAR*h
Brain AUC0–2 h [90% CI], relative quantification (peak area ratio) [1, 9]: 3.96 [3.25–4.67] PAR*h
Sera AUC0–2 h [90% CI], relative quantification (peak area ratio) [1, 9]: 4.67 [4.21–5.13] ^a PAR*h

O=C(O)Cc1ccccc1Nc1c(Cl)cccc1Cl [Diclofenac]
AUC(0-t) [1]: 232 µM·h
Brain AUC0–2 h [90% CI] [1, 8]: 33.8 [28.2–39.4] nmol/g/tissue*h
Brain AUC0–2 h [90% CI] [1, 9]: 44.9 [39.5–50.3] ^a nmol/g/tissue*h
time to loss of motor function compared to vehicle control [2]: did not have a measureable effect
binding to GHB binding sites in rat brain [4]: ligand for the GHB binding sites in rat brain
pKi [5]: 4.96

O=C(O)CCCO [GHB, gamma‐hydroxybutyric acid]
Km [6]: 4.6 to 7.7 mM

O=C(O)/C=C1\CCCc2ccccc2C1=O [NCS dehydrogenation]
detection of NCS‐382 metabolites in urine and feces [7]: found in neither
Sera AUC0–2 h [90% CI], relative quantification (peak area ratio) [1, 9]: 2.72 [2.26–3.18] ^a PAR*h
Sera AUC0–2 h [90% CI], relative quantification (peak area ratio) [1, 10]: 1.99 [1.82–2.16] PAR*h

O=C(O)/C=C1\CCCc2ccccc2C1O[C@@H]1O[C@H](C(=O)O)[C@@H](O)[C@H](O)[C@H]1O (stereo partly shown) [NCS‐Glucuronide]
detection of NCS‐382 metabolites in urine and feces [7]: detectable in both the urine and feces
Brain AUC0–2 h [90% CI], relative quantification (peak area ratio) [1, 9]: 4.58 [3.61–5.55] PAR*h
Sera AUC0–2 h [90% CI], relative quantification (peak area ratio) [1, 9]: 2.86 [2.55–3.18] PAR*h
Brain AUC0–2 h [90% CI], relative quantification (peak area ratio) [1, 10]: 3.28 [2.53–4.03] PAR*h
Sera AUC0–2 h [90% CI], relative quantification (peak area ratio) [1, 10]: 3.65 [2.65–4.65] PAR*h
